Data taken from US5358712A, “Radiopharmaceutical agents for the detection of Alzheimer's disease” (Regents of the University of Minnesota, priority 1993, dated 1994).

Experiments:
[1] = molecular target: T1, vesamicol receptor (Tetronarce californica, UniProt P81721); assay: Binding affinities of aminoalcohols at the vesamicol receptor (purified cholinergic synaptic vesicles); design: species or system Torpedo californica
T1 construct: no ATP or acetylcholine
T1 sequence (P81721 1-515): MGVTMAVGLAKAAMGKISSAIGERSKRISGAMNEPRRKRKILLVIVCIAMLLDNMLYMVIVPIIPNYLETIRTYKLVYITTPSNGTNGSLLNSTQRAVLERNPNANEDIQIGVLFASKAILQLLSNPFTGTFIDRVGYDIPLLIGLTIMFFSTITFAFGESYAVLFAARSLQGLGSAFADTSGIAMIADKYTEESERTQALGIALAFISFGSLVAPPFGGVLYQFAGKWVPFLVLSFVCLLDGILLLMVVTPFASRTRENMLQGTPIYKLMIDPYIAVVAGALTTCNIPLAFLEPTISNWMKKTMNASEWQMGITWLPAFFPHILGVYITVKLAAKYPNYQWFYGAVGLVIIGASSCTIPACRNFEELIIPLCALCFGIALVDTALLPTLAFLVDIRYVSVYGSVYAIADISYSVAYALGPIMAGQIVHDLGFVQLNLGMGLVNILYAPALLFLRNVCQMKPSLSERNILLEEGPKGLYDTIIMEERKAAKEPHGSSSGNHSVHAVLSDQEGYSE
Experimental: The compounds were evaluated in a purified preparation of cholinergic synaptic vesicles isolated from the electric organ of Torpedo californica. A full description of this assay was described earlier. However, the present study was carried out in the absence of ATP and acetylcholine. […] Nonlinear regression analysis was carried out with MINSQ (MicroMath Scientific Software, Salt Lake City, Utah.). Protein content was determined by the method of Bradford, using a bovine serum albumin standard.
^a The compounds were tested as the corresponding hydrochlorides,
using highly purified synaptic vesicles obtained from the electric organ
of Torpedo Californica, following a procedure described earlier (8).

[2] = test system: vesamicol receptor; settings: rodent brain; cited from earlier work
[3] = Tissue distribution (biodistribution) of radioiodinated compound in the rat; settings: rat
[4] = rat
[5] = test system: vesamicol receptor; assay: Blocking experiments: inhibition of radiotracer accumulation in the rat by coadministered compound; type: in vivo, rat (male Wistar); settings: rat
Summary of the method: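 Male Wistar rats (n=3/group) got iv radiotracer, alone or coadministered with blocker (e.g. (+)/(−)-HBrPP·HCl 1.3 μmol/kg, vesamicol·HCl 1.1 μmol/kg, or 0.31–0.53 mg/kg in other series). Blood and tissues taken 60 min post-injection to assess radiotracer accumulation.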

[6] = test system: rodents and other laboratory animals; settings: cited from earlier work
[7] = test system: vesicular acetylcholine storage; settings: cited from earlier work
[8] = test system: vesamicol receptor; assay: Ligand displacement studies in vivo; design: species or system rat (male Wistar); settings: rat, vesamicol iv 30 minutes after radiotracer
Experimental: To determine if vesamicol could displace bound [^125 I]5 in vivo, a blocking dose of vesamicol was injected intravenously 30 minutes following the administration of (-)-[^125 I]5.
Two groups of male Wistar rats (n=3) were used in this study. Each animal initially received, while under anesthesia, an iv dose of (-)-5, (9.5 μCi) in 0.1 ml of 50% aqueous ethanol. After 30 min. the control group received an iv dose of 50% aqueous ethanol (0.1 ml) while the second group received an iv dose of (dl)-vesamicol hydrochloride (1.1 μmol/kg) in 0.1 ml of 50% aqueous ethanol. All animals were sacrificed, as described above, at one hour following radiotracer injection. Data was analyzed as described above.

[9] = test system: vesamicol receptor; settings: cited from earlier work
[10] = iv, 60 min, + (dl)-vesamicol HCl 0.3 (Table 3) or 0.31 mg/kg, 60 min
[11] = iv, 60 min, radiotracer only (control)

OC(CN1CCC(c2ccccc2)CC1)c1ccc(Br)cc1 (racemic) [Compound 15i, (dl)-1-(4-Bromophenyl)-2-(4-phenylpiperidinyl)ethanol]
binding to the vesamicol receptor (in words) [1]: equipotent with (dl)-vesamicol

O[C@@H]1CCCC[C@H]1N1CCC(c2ccccc2)CC1 (relative stereo) [[^3 H]vesamicol]
cortical [^3 H]vesamicol binding after lesioning a known cholinergic pathway [2]: significant decrease | distribution relative to other markers of cholinergic innervation [2]: correlate well

OC(Cc1ccc(Br)cc1)CN1CCC(c2ccccc2)CC1 (single isomer, unassigned; (-)) [(-)-15a, 3-(4-Bromophenyl)-2-hydroxy-1-[1-(4-phenylpiperidinyl)]propane]
binding to the vesamicol receptor (in words) [1]: essentially equipotent with vesamicol

OC(CN1CCC(c2ccccc2)CC1)c1ccc([125I])cc1 (single isomer, unassigned; (+)) [(+)-[^125 l]13] [1-(4-Iodophenyl)-2-(4-phenylpiperidinyl)ethanol]
decrease of concentration in the brain ([3]; 3 hours post-injection vs initial, listed as (+)[^123 I]13): 35% | initial accumulation in the rat brain ([3]; initial, listed as (+)-[^125 I]13): 2.75 % of the injected dose | Brain: Blood Ratio ([3]; iv, 5 min): 14.8 | Heart: Blood Ratio ([3]; iv, 5 min): 13.8 | Brain: Blood Ratio ([3]; iv, 60 min): 41.7 | Heart: Blood Ratio ([3]; iv, 60 min): 8.2 | radioactivity in lung ([3]; iv, 60 min): 1.77 % dose/g | Brain: Blood Ratio ([3]; iv, 180 min): 37.4 | Heart: Blood Ratio ([3]; iv, 180 min): 5.7 | radioactivity in blood ([3]; iv, 180 min): 0.02 % dose/g | radioactivity in brain ([3]; iv, 180 min): 0.93 % dose/g | radioactivity in heart ([3]; iv, 180 min): 0.14 % dose/g | radioactivity in kidney ([3]; iv, 180 min): 1.53 % dose/g | radioactivity in liver ([3]; iv, 180 min): 1.97 % dose/g | radioactivity in lung ([3]; iv, 180 min): 0.62 % dose/g | radioactivity in muscle ([3]; iv, 180 min): 0.13 % dose/g | radioactivity in spleen ([3]; iv, 180 min): 0.77 % dose/g | efflux from the brain [4]: much slower | Brain: Blood Ratio [5, 10]: 7.02 | Heart: Blood Ratio [5, 10]: 2.48 | radioactivity in blood [5, 10]: 0.03 % dose/g of tissue | Brain: Blood Ratio [5, 11]: 17.86 | Heart: Blood Ratio [5, 11]: 4.41

O[C@@H]1CCCC[C@H]1N1CCC(c2ccccc2)CC1 (relative stereo) [vesamicol, trans-2-(4-phenylpiperidino)cyclohexanol]
respiratory paralysis and death [6]: induces respiratory paralysis and death | inhibition of ACh uptake into cholinergic synaptic vesicles and of quantal release [7]: inhibit both the uptake of ACh into cholinergic synaptic vesicles and quantal release | displacement of bound (-)-[^125 I]5 radioactivity from brain or heart [8]: fails to displace | displacement of bound (-)-[^125 I]5 radioactivity from brain or heart ([8]; listed as (dl)-vesamicol): can not readily displace | dissociation from the receptor [9]: dissociate too quickly | reversibility of binding to the vesamicol receptor [9]: binds reversibly | blocking of the accumulation of [^125 I]5 in vivo, relative potency ([5]; vesamicol 1.1 μmol/kg, (+)-7 and (-)-7 1.3 μmol/kg, coadministered): equipotent

OC(Cc1cccc(I)c1)CN1CCC(c2ccccc2)CC1 (single isomer, unassigned; (+)) [Compound 15j, (+)-2-Hydroxyl-3-(3-iodophenyl)-1-[1-(4-phenylpiperidinyl)]propane]
Kd ([1]; synaptic vesicles from electric organ of Torpedo californica, tested as hydrochloride): 73 ± 11 nM
